{"source": "patent US8039233B2", "about": "“Nucleic acid sequences and their use in methods to identify umami modulatiors” (Givaudan S.A., priority 2007, dated 2011)", "key": {"[1]": {"tested_on": "CSR:T1R1/CSR:T1R3 chimeric heterodimer", "assay": "Fluo-4 calcium assay, cells transfected with CSR:T1R1 and CSR:T1R3", "assay_type": "cell-based, human", "conditions": "for response (calcium signal) of CSR:T1R1/CSR:T1R3 chimeric heterodimer, in words / CSR:T1R1/CSR:T1R3 AVG (mean ΔF/F): Calcium Chloride 2 mM, 745047-97-6 25 μM; for CSR:T1R1/CSR:T1R3 AVG (mean ΔF/F): HEK293T/Gα16-gustducin 44 cells, six replicates, MSG 2.5 mM + IMP 0.2 mM; for signal in CSR:T1R1/CSR:T1R3 cells as magnitude of signals obtained in cells transfected with the hCaSR receptor: relative to hCaSR transfected cells", "procedure": "(§1) Fluo-4 is a fluorescent indicator for intracellular calcium and allows for determination of changes in the intracellular calcium concentration, in particular an increase in response to receptor activation occurring after ligand addition.\n(§2) HEK293 cells stably expressing Gα16-gustducin 44 were used as host cells and transfected with various constructs as described in example 4.\n(§3) Black, clear-bottom 96-well plates were used for all assays. They were seeded the day before with 8500 transfected cells per well and maintained at 37° C. overnight in an a growth medium appropriate for the cells used. For HEK293 cells, Dulbecco's Modified Eagle medium containing high glucose, L-glutamine, pyroxidine hydrochloride, and supplemented with 10% fetal bovine serum was used for growth and maintenance of the HEK293 cells.\n(§4) At the time of the assay, the growth medium was discarded and cells were incubated for 1 hour (at 37° C. in the dark) with 50 μl of a calcium assay solution consisting of 1.5 μM Fluo-4 AM (Molecular Probes™, Invitrogen, US) and 2.5 μM probenicid (Sigma-Aldrich) dissolved in a reduced calcium C1 buffer solution. Reduced calcium C1 buffer solution contains 130 mM NaCl, 5 mM KCl, 10 mM Hepes, 0.5 mM CaCl2 (reduced from 2 mM) and 10 mM glucose (pH 7.4).\n(§5) After the initial 1 hour loading period, the plates were washed 5 times with 100 μl per well of reduced calcium C1 buffer using an automated plate washer (BioTek) and after washing, the plate was further incubated for 30 minutes at room temperature in the dark to allow for complete de-esterification of the Fluo-4-AM. The buffer solutions were discarded, the plate was washed 5 times with 100 μl reduced calcium C1 wash buffer and finally the cells were reconstituted in 180 μl of reduced calcium C1 wash buffer.\n(§6) For assay reading, the plate was placed in a FLIPR (fluorescence imaging plate reader (FLIPR-Tetra, Molecular Devices)), and receptor activation was initiated following addition of 20 μl of a 10× concentrated ligand stock solution, which were prepared in reduced calcium C1 buffer.\n(§7) Fluorescence was continuously monitored for 15 seconds prior to ligand addition and for 105 seconds after ligand addition (45-105 sec may be sufficient).\n(§8) Receptor activation is determined by the increase in peak fluorescence (F) normalized to the baseline fluorescence (F0). The data are normalized using the following equation: ΔF/F=(F−F0)/F0, where F is the peak fluorescence signal and F0 is the baseline fluorescence signal, wherein the baseline fluorescence represents the mean fluorescence calculated for the first 10 to 15 seconds prior to ligand addition.\n(§9) This value obtained corresponds to the calcium increase of the cell in response to a direct or indirect interaction with the transfected receptor (“signal”).\n(§10) As a negative control, mock transfected cells were exposed to the same concentration of ligand and the concentration of calcium traces not corresponding to a signal was determined.\n(§11) HEK293T cells that stably express Gα16-gustducin 44 (formed as described in WO 2004/055048) were transfected with the CSR::T1R1, CSR::T1R3 constructs, or with hCaSR as follows:\nOn day 0, the HEK293T/Gα16-gustducin 44 cells were plated in 96-well black, clear-bottom plates at a density of 8500 cells per well and grown overnight in selective growth media. On day 1, the media was changed to an antibiotic-free and serum-free growth medium and the cells were transfected using 75 ng each of CSR:T1R1 and CSR:T1R3 (total 150 ng), T1R1 and T1R3 (total 150 ng), or 75 ng hCaSR vector construct DNA and 0.3 μl of Lipofectamine 2000 (Invitrogen).\nFor transfection of either the CSR:T1R1/CSR:T1R3 heterodimer, 75 ng of each vector construct was combined for a total of 150 ng per pair and used together with 0.3 μl of Lipofectamine 2000. 75 ng of hCaSR vector DNA was used for this calcium-sensing monomeric GPCR […]"}, "[2]": {"tested_on": "Mock transfected HEK293T/Gα16-gustducin 44 cells", "assay": "Fluo-4 calcium assay, mock transfection (negative control)", "assay_type": "cell-based", "conditions": "Calcium Chloride 2 mM, 745047-97-6 25 μM; for Neg. control (mock transfection) AVG (mean ΔF/F): mock transfected cells, six replicates, MSG 2.5 mM + IMP 0.2 mM", "procedure": "as §1, §2, §3\nas §4, with “Reduced calcium C1 buffer solution contains 130 mM NaCl, 5 mM KCl, 10 mM Hepes, 0.5 mM CaCl2 (reduced from 2 mM) and 10 mM glucose (pH 7.4).” left out\nas §6, §7\nas §8, with “addition. […]” for “addition.”\nas §10\nThe intracellular calcium response following stimulation with various ligands was determined in HEK293T cells stably expressing Gα16-gustducin 44 and transfected with CSR:T1R1 and/or CSR:T1R3 chimeric constructs. […]\nThe transfections were performed as described in example 4. Results were calculated as described in example 1 (data indicates the normalized increase in fluorescence over baseline after stimulation (ΔF/F); the mean (AVG) and the ±Standard deviation (STD) of six replicate experiments is given). […]\nThe calcium mobilization signals obtained are increase in peak fluorescence (F) normalized to the baseline fluorescence (F0). […]"}, "hCaSR": {"molecular_target": "T1, hCaSR (Homo sapiens, UniProt P41180, E1011Q)", "T1 construct": "For hCaSR, a commercially available pCMV-based vector construct which is based on the full length cDNA was used; host or cells: HEK293T cells stably expressing Galpha16-gustducin 44, transiently transfected with 75 ng of vector", "T1 sequence (P41180 20-1078 E1011Q)": "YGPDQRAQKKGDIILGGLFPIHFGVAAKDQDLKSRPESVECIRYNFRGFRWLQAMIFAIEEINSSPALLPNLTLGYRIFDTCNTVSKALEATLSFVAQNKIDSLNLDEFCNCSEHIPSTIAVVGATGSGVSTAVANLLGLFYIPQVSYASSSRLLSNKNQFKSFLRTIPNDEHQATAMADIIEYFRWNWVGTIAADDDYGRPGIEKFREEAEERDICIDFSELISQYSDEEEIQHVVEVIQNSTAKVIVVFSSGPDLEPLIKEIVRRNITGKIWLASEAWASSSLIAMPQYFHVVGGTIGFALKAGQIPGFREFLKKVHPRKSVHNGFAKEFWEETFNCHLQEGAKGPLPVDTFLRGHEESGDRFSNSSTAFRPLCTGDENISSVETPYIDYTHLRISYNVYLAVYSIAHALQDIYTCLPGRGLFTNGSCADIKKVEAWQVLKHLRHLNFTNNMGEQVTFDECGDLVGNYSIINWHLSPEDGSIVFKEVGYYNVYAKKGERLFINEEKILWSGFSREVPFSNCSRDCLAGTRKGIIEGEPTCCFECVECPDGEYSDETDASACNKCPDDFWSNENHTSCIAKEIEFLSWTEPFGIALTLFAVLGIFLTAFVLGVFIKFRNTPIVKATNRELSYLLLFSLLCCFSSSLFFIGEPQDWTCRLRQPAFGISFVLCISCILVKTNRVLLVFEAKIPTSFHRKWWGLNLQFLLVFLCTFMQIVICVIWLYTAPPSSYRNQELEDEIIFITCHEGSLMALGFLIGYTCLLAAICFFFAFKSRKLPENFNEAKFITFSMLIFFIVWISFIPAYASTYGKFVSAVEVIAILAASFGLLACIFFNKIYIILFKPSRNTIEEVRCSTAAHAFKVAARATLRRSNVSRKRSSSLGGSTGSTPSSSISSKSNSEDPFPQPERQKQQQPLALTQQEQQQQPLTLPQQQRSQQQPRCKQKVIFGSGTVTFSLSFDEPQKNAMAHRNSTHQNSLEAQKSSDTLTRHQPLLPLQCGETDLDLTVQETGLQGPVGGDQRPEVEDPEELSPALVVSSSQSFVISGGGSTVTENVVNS", "assay": "Fluo-4 calcium assay, cells transfected with hCaSR", "assay_type": "cell-based", "conditions": "Calcium Chloride 2 mM, 745047-97-6 25 μM, MSG 2.5 mM + IMP 0.2 mM; for hCaSR AVG (mean ΔF/F): HEK293T/Gα16-gustducin 44 cells, six replicates", "procedure": "as §1, §2, §3, §4, §5, §6, §7\nas §8, with “addition. […]” for “addition.”\nAs a negative control, mock transfected cells were exposed to the same concentration of ligand and the concentration of calcium traces not corresponding to a signal was determined. […]"}, "[3]": {"tested_on": "CSR:T1R1 chimeric homomer", "assay": "Fluo-4 calcium assay, cells transfected with CSR:T1R1", "assay_type": "cell-based, human", "conditions": "Calcium Chloride 2 mM, 745047-97-6 25 μM, MSG 2.5 mM + IMP 0.2 mM; for CSR:T1R1 AVG (mean ΔF/F): HEK293T/Gα16-gustducin 44 cells, six replicates", "procedure": "as §1, §2, §3, §4, §5, §6, §7, §8, §9, §10, §11\nOn day 0, the HEK293T/Gα16-gustducin 44 cells were plated in 96-well black, clear-bottom plates at a density of 8500 cells per well and grown overnight in selective growth media. […]"}}, "note": "Entries after “also recorded” stand apart in the source; their conditions may differ.", "data": [{"compound": "[Ca+2].[Cl-].[Cl-]", "note": "[Calcium, Calcium Chloride]", "values": [{"measurement": "response (calcium signal) of CSR:T1R1/CSR:T1R3 chimeric heterodimer, in words", "setting": "[1]; listed as calcium", "result": "react to calcium; also recorded: activated"}, {"measurement": "response (calcium signal) of CSR:T1R1/CSR:T1R3 chimeric heterodimer, in words", "setting": "[1]; listed as calcium chloride", "result": "significant increase of the signal; also recorded: significantly higher the background signals"}, {"measurement": "CSR:T1R1/CSR:T1R3 AVG (mean ΔF/F)", "setting": "[1]", "result": 0.72}, {"measurement": "signal in CSR:T1R1/CSR:T1R3 cells as magnitude of signals obtained in cells transfected with the hCaSR receptor", "setting": "[1]", "result": "approximately 50%"}, {"measurement": "response in mock transfected negative control, in words", "setting": "[2]", "result": "No response"}, {"measurement": "Neg. control (mock transfection) AVG (mean ΔF/F)", "setting": "[2]", "result": 0.24}, {"measurement": "response (calcium signal) of hCaSR, in words", "setting": "hCaSR; listed as calcium", "result": "react to calcium"}, {"measurement": "response (calcium signal) of hCaSR, in words", "setting": "hCaSR; listed as calcium chloride", "result": "responded"}, {"measurement": "hCaSR AVG (mean ΔF/F)", "setting": "hCaSR", "result": 1.44}, {"measurement": "response (calcium signal) of CSR:T1R1 chimeric homomer, in words", "setting": "[3]; listed as calcium", "result": "react to calcium; also recorded: activated"}, {"measurement": "response (calcium signal) of CSR:T1R1 chimeric homomer, in words", "setting": "[3]; listed as calcium chloride", "result": "significant increase of the signal"}, {"measurement": "CSR:T1R1 AVG (mean ΔF/F)", "setting": "[3]", "result": 0.78}]}, {"compound": "COc1cc(C)ccc1CNC(=O)C(=O)NCCc1ccccn1", "note": "[745047-97-6-oxalamide, N-(2-Methoxy-4-methyl-benzyl)-N′-(2-pyridin-2-yl-ethyl)-oxalamide]", "values": [{"measurement": "response (calcium signal) of CSR:T1R1/CSR:T1R3 chimeric heterodimer, in words", "setting": "[1]", "result": "significant increase of the signal; also recorded: significantly higher the background signals; also recorded: activated"}, {"measurement": "CSR:T1R1/CSR:T1R3 AVG (mean ΔF/F)", "setting": "[1]", "result": 0.43}, {"measurement": "signal in CSR:T1R1/CSR:T1R3 cells as magnitude of signals obtained in cells transfected with the hCaSR receptor", "setting": "[1]", "result": "approximately 50%"}, {"measurement": "response in mock transfected negative control, in words", "setting": "[2]", "result": "No response"}, {"measurement": "Neg. control (mock transfection) AVG (mean ΔF/F)", "setting": "[2]", "result": 0.03}, {"measurement": "hCaSR AVG (mean ΔF/F)", "setting": "hCaSR", "result": 0.04}, {"measurement": "response (calcium signal) of CSR:T1R1 chimeric homomer, in words", "setting": "[3]", "result": "significant increase of the signal; also recorded: activated"}, {"measurement": "CSR:T1R1 AVG (mean ΔF/F)", "setting": "[3]", "result": 0.31}]}]}
